{
  "source": "patent US9717727B2",
  "about": "“Methods of treating and preventing leukemia and other cancers of the blood and bone” (The Trustees of Columbia University in the City of New York, priority 2011, dated 2017)",
  "key": {"serum serotonin": {"tested_on": "serum serotonin", "experiment": "Serum serotonin levels by ELISA, EL4 study (Example 9)", "type": "in vivo, mice", "details": "leukemic and non-leukemic groups; LP-533401 25 or 200 mg/kg/day oral", "protocol": "Mice were treated orally with LP-533401 (25 or 200 mg per kg of body weight per day) or vehicle. Treatments started 15 days before malignant cell injections in all sets of experiments, and continued for the indicated periods of time. LP-533401 was dissolved in polyethylene glycol (PEG) and 5% dextrose or 2.5% glucose (Sigma), and given daily by oral gavage. Mice treated with vehicle were administered, in the same way as LP533401, a solution of PEG and 5% dextrose or 2.5% glucose, daily, by oral gavage. For measurements of serum serotonin levels, mice were briefly exposed to Isoflurane (Baxter) for 30 seconds and blood was collected by cardiac puncture. Similar volumes of blood were collected from different animals for consistency in the clotting times. Serum collection from all mice was done between 9:00 am and 12:00 pm. Blood was allowed to clot on ice for 5 minutes before centrifugation at maximum speed at 4° C. for 10 minutes. The serum supernatant was removed, snap frozen and stored at −80° C. for further analysis. Serum serotonin levels were quantified by ELISA (Serotonin kit, Fitzgerald) according to manufacturer's instructions."}, "[1]": {"tested_on": "hematopoietic compartment", "experiment": "Flow cytometry of hematopoietic cell populations in bone marrow (Example 11)", "type": "in vivo, mice", "protocol": "Freshly isolated bone marrow cells or spleen cells were resuspended in flow-staining buffer (PBS plus 2% FBS) and the primary conjugated antibodies were added. After 30 minutes incubation at 4° C., the cells were then washed twice before flow cytometry analysis. The following antibodies conjugated with fluorescein isothiocyanate (FITC), Allophycocyanin (APC) phycoerythrin (PE), PE-Cy7, APC-CY7, Pacific Blue, and Alexa 700 were used: Lineage cocktail (B220, CD19, IL-7R chain, CD3, DX5, Gr-1, Ter119, CD71 and CD41), B220 (6B2), CD19 (1D3), IgM (II/41), CD3 (KT31.1), CD4 (GK1.5), CD8 (53-6.7), Gr-1 (8C5), Mac1/CD11b (M1/70), Ter119, CD71 (C2), c-Kit (2B8), Sca-1 (E13-161-7), CD34 (RAM34), FcRII/III (2.4G2) or CD135/Flt-3 (all from Becton Dickinson, San Diego, Calif.).\nThe cell cycle analysis of LSK cells was determined by staining for 30 min at 37° C. with Hoechst 33342 (Molecular Probes) and pyronin Y (Sigma). Seven-color flow cytometry acquisition was performed using a LSR II flow cytometer (Becton Dickinson) and analysis using FLO-JO software (Treestar, Inc). Cells were gated for size, shape and granularity using forward and side scatter parameters. The positive populations were identified as cells that expressed specific levels of fluorescence activity above the nonspecific auto fluorescence of the isotype control. Nonspecific binding was reduced by preincubation with unconjugated anti-FcRII/III (2.4G2). For Flow sorting EL4-GFP-Luc cells were resuspended in flow staining buffer, and flow sorting was performed using FACSAria (BD). Sorted GFP positive cells were then subsequently cultured for 12 hours and injected into the mice.\nThe methods used in Example 8 to measure the various cell types were used.\nMice treated as described in Example 9 were examined."}, "[2]": {"details": "in vivo; cited from earlier work"}, "serotonin": {"tested_on": "serotonin", "details": "six consecutive doses, cited from earlier work"}},
  "note": "Like-named read-outs stand apart in the source and are kept apart here.",
  "data": [
    {"smiles": "Nc1nc(OC(c2ccc(-c3cccc(F)c3)cc2)C(F)(F)F)cc(-c2ccc(C[C@H](N)C(=O)O)cc2)n1", "note": "(stereo partly drawn) [LP-533401]", "values": [
      {"measurement": "decrease in serum serotonin levels compared to vehicle-treated animals", "setting": "serum serotonin", "value": 30, "unit": "%"},
      {"measurement": "numbers of LSK FLT3+ cells", "setting": "[1]; healthy and leukemic mice", "value": "reduced the numbers"},
      {"measurement": "B-lymphopoiesis", "setting": "[1]; leukemic animals", "value": "did not affect"},
      {"measurement": "GMP and CMP populations", "setting": "[1]; leukemic mice", "value": "further suppressed their frequencies"},
      {"measurement": "LSK FLT3+ lymphoid progenitor cell subset (percentage)", "setting": "[1]; leukemic mice", "value": "not affected"},
      {"measurement": "MEP subsets", "setting": "[1]; leukemic mice", "value": "not affected"},
      {"measurement": "TER119+ erythroid progenitor cells", "setting": "[1]; leukemic mice", "value": "increased"},
      {"measurement": "increase in CD3+ cells", "setting": "[1]; leukemic mice", "value": "prevented the increase"},
      {"measurement": "increase in CD11b+GR1+ myeloid cells", "setting": "[1]; leukemic mice", "value": "limited the increase"},
      {"measurement": "leukemia-induced increase of LSK cells in the bone marrow", "setting": "[1]; leukemic mice", "value": "hampered"},
      {"measurement": "leukemia-reduced total bone marrow cellularity", "setting": "[1]; leukemic mice", "value": "not altered"},
      {"measurement": "CMPs and MEPs", "setting": "[1]; non-leukemic mice", "value": "not affected"},
      {"measurement": "GMPs and more mature myeloid cells", "setting": "[1]; non-leukemic mice", "value": "decreased"},
      {"measurement": "LSK cells in the bone marrow compared to wild-type", "setting": "[1]; non-leukemic mice", "value": "decrease"},
      {"measurement": "Ter119+ erythroid cells", "setting": "[1]; non-leukemic mice", "value": "increased"},
      {"measurement": "lymphoid lineage, including B and T cells", "setting": "[1]; non-leukemic mice", "value": "no effect"},
      {"measurement": "total bone marrow cellularity", "setting": "[1]; non-leukemic mice", "value": "did not affect"},
      {"measurement": "crossing of the blood-brain barrier", "setting": "[2]", "value": "did not cross the blood-brain barrier"},
      {"measurement": "serotonin levels in the small intestine lowered", "setting": "serotonin; 30 mg/kg twice per day", "value": 55, "unit": "%"},
      {"measurement": "serotonin levels in the small intestine lowered", "setting": "serotonin; 90 mg/kg twice per day", "value": 70, "unit": "%"},
      {"measurement": "brain-derived serotonin", "setting": "serotonin; 30 or 90 mg/kg twice per day", "value": "unchanged"}
    ]}
  ]
}
